Values after ≈ are worked out from the molar mass of the structure shown.
How the values were obtained:
K. pneumoniae = assay: MIC, summary over K. pneumoniae strains; format: cell-based; conditions: Klebsiella pneumoniae, two strains; read-out: MICs against K. pneumoniae
Experimental: MIC was determined using the broth microdilution method in accordance with Clinical and Laboratory Standards Institute guidelines. All compounds were dissolved in dimethyl sulfoxide (DMSO; final DMSO concentration of less than 0.5%) and sterile double-distilled water and then diluted with Mueller-Hinton broth (MHB). Each compound’s stock solution was serially twofold diluted, resulting in concentrations ranging from 0.39 to 100 μg/ml, and thereafter added to sterile 96-well plates. All bacterial cell suspensions were adjusted in MHB to attain a starting inoculum of 1 × 10^6 cells/ml. A total of 100 μl volume of the bacterial suspension was then added to each well. Following a 24-hour incubation at 37°C, the optical density at 600 nm (OD600) was confirmed by measuring absorbance at 600 nm with a BioTek microplate reader. […] All measurements were repeated three times with duplicates each time.

[1] = biological target: T1, topoisomerase IV from E. coli (Escherichia coli, UniProt P0AFI2+P20083); assay: Topoisomerase IV decatenation inhibition assay; format: biochemical; conditions: 1× MIC
T1 construct: purchased ProFoldin (Worcester, MA)
T1 sequence (P20083 whole entry): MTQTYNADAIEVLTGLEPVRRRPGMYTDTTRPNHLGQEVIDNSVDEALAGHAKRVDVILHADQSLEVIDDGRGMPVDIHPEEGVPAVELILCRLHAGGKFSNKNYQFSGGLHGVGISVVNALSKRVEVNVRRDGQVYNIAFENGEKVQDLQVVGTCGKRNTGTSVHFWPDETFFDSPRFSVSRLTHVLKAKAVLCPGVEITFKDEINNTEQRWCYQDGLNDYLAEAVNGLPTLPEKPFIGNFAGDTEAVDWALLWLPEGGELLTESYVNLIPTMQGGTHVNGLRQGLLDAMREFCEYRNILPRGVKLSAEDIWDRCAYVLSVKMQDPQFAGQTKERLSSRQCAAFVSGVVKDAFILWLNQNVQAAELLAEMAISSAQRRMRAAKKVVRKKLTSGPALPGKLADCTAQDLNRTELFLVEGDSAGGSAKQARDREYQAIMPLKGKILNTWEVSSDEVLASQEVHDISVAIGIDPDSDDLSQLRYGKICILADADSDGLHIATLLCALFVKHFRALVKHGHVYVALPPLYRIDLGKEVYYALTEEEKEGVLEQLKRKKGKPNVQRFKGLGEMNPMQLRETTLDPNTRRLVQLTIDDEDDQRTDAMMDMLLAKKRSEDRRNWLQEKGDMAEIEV
T1 sequence (P0AFI2 whole entry): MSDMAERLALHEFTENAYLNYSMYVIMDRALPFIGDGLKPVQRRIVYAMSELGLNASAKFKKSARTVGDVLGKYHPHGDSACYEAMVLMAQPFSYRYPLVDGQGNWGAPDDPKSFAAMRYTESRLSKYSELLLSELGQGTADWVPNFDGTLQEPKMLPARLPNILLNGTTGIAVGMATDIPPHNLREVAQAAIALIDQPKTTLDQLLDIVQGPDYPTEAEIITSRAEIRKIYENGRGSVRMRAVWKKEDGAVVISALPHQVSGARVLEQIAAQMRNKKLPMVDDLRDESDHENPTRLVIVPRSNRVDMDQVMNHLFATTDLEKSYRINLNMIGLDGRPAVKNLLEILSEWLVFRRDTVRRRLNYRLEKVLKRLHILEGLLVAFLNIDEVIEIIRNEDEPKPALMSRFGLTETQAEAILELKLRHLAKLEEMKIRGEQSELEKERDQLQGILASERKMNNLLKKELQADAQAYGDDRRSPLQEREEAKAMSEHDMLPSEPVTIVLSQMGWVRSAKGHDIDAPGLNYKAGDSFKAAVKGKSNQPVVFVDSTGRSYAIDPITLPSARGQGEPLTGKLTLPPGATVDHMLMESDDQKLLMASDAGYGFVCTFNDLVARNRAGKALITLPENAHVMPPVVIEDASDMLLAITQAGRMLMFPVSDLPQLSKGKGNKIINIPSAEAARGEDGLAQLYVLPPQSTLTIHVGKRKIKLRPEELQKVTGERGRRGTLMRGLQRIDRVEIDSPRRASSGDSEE
Experimental: (§1) E. coli topoisomerase enzymes (II and IV) were supplied by ProFoldin (Worcester, MA), and assays were performed according to the manufacturer’s instructions. Briefly, the DNA supercoiling assay was conducted in a volume of 40 μl containing 24 μl of H2O, 4 μl of 10× buffer, 4 μl of 10× relaxed DNA, 4 μl of 10× enzyme, and 4 μl of 10 mM adenosine triphosphate (ATP). Following a 60-min incubation at room temperature, 200 μl of H2O was added to each reaction mixture. Topoisomerase IV decatenation inhibition assay was conducted in a volume of 50 μl containing 38.5 μl of H2O, 5 μl of 10× buffer, 5 μl of 10× concatenated DNA, 0.5 μl of 100× enzyme, and 1 μl of 10 mM ATP. After 60 min of incubation at 37°C, 5 μl of 0.4 M EDTA was added to stop the reaction. […]
(§2) In the supercoiling inhibition assay, the fluorescence intensity was measured using freshly prepared 1× H19 dye, which was prepared by diluting 100× H19 dye with 10 mM tris-HCl and 10 mM NaCl (pH 7.0). […] In the decatenation inhibition assay, the change in fluorescence intensity was monitored using the 1× fluorescence dye after diluting the 20× dye with water. The reaction solution eluted from the column was mixed with 150 μl of 1× fluorescence dye. The fluorescence intensity for both assays was lastly detected at 535 nm using an excitation wavelength of 485 nm. […]

[2] = In vivo corneal toxicity, fluorescein staining; set-up: species or system mice; conditions: topical application to murine cornea
Experimental: In addition, the in vivo toxicity assessment of compound XT17 toward murine cornea was conducted through local application using 1% fluorescein sodium solution to stain the cornea.

E. coli ATCC 25922 = assay: SYTOX Green uptake assay; format: cell-based, Escherichia coli; conditions: up to 8× MIC
Experimental: The SYTOX Green uptake was measured to explore the inner membrane permeability. The overnight bacteria culture was centrifuged and resuspended in sterile PBS to obtain an OD600 of 0.2. SYTOX Green dye was added to a final concentration of 0.3 μM and incubated for 20 min without being exposed to the light. Fluorescence was measured at excitation and emission wavelengths of 504 and 523 nm, respectively. […] The changes in fluorescence intensity were continuously monitored for 1 hour. All measurements were repeated three times with duplicates each time.

P. aeruginosa ATCC 9027 [3] = assay: Time-kill kinetic assay; format: cell-based, Pseudomonas aeruginosa; conditions: 5× MIC
Experimental: The bacterial cultures were standardized to obtain an initial density that ranged from 10^5 to 10^6 cells/ml. The cultures were incubated in a shaking bath at 37°C. Viable counts were determined at 0-, 0.5-, 1.0-, 2.0-, 4.0-, 8.0-, and 24-hour intervals by spotting 10-μl aliquots of serially 10-fold diluted cultures onto Mueller-Hinton agar (MHA) plates. After incubation at 37°C for 24 hours, the bactericidal activity, defined as the ability to reduce the initial inoculum by 3 log10 CFU/ml, was examined for each tested concentration over time. All measurements were repeated three times with duplicates each time.

S. aureus ATCC 29213 = assay: Serial passage resistance induction; format: cell-based, Staphylococcus aureus; conditions: 20-day passages at 0.5× MIC
Experimental: (§3) The bacteria were grown in a medium containing 0.5× MIC of each compound to prepare the bacterial suspension for the next MIC determination. The MICs were then recorded after incubation at 37°C for 24 hours. Daily passages were continued until the initial MIC increased by more than fourfold. The stability of acquired resistance was investigated by MIC determination and repeated for 20 days.

E. coli DNA gyrase = biological target: T2, E. coli DNA gyrase (Escherichia coli, UniProt P0AES4+P0AES6); assay: DNA gyrase supercoiling inhibition assay; format: biochemical
T2 construct: purchased ProFoldin (Worcester, MA)
T2 sequence (P0AES4 whole entry, one chain of several): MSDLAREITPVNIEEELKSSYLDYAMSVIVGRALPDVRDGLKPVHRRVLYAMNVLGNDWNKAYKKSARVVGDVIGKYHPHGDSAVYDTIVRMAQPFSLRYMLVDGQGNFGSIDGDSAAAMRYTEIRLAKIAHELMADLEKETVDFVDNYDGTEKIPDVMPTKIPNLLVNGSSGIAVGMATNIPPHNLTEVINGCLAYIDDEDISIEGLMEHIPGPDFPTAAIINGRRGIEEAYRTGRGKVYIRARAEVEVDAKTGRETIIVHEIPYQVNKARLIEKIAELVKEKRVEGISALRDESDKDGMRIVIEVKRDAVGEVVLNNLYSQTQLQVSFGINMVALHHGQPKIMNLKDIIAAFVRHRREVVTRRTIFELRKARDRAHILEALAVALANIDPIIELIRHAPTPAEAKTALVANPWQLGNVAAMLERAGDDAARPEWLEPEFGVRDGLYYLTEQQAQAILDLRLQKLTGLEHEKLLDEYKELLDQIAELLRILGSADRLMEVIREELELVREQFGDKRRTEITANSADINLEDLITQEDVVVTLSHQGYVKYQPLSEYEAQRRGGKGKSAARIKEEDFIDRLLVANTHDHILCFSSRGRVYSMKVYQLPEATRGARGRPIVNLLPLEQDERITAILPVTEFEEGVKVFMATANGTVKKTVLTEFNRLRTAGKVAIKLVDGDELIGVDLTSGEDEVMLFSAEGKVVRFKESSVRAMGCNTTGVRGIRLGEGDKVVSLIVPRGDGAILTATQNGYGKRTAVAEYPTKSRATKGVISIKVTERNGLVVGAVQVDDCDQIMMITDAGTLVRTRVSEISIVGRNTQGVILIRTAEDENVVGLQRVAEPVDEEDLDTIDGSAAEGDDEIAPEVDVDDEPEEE
Experimental: as §1, §2

P. aeruginosa ATCC 9027 [4] = assay: Serial passage resistance induction; format: cell-based, Pseudomonas aeruginosa; conditions: 20-day passages at 0.5× MIC
Experimental: as §3

LPS = assay: BODIPY-TR-cadaverine displacement assay; format: binding
Experimental: (§4) The percentage of displacement from LTA-BODIPY/LPS-BODIPY by test compounds was determined according to BODIPY cadaverine displacement assay. […] The mixture was incubated in the dark for 30 min, and then the fluorescence was monitored at an excitation wavelength of 580 nm and an emission wavelength of 620 nm using a BioTek multidetector microplate reader. The percentage of displacement from LTA-BODIPY/LPS-BODIPY was calculated by the following formula: % Displacement = (FS − Fmin)/(Fmax − Fmin) × 100. Where FS is the fluorescence intensity observed at a given test compound concentration, Fmin is the fluorescence intensity of BODIPY with LTA/LPS and DMSO, and Fmax is the fluorescence intensity of BODIPY with only DMSO. All tests were carried out at least twice and with biological replicates.

LTA = assay: BODIPY-TR-cadaverine displacement assay; format: binding
Experimental: as §4

SMILES: CC(C)=CCOc1cc(OCCCNC(=N)N)cc2oc3cc(OCCCNC(=N)N)ccc3c(=O)c12 [XT17]
- MIC (K. pneumoniae): 6.25 to 12.5 µg/mL (≈ 12.2 to 24.5 µM)
- Inhibition of topoisomerase IV (%) [1]: 36.93%
- corneal damage (slit-lamp, fluorescein staining) [2]: no notable signs of corneal damage
- SYTOX Green fluorescence intensity (cytoplasmic membrane permeabilization) (E. coli ATCC 25922): did not show a notable increase
- log bacterial load reduction (P. aeruginosa ATCC 9027 [3]; 1 hour): 3.24 log
- bacterial regrowth (P. aeruginosa ATCC 9027 [3]; at 24 hours): no bacterial regrowth was observed
- increase in MIC values during passages (S. aureus ATCC 29213): no more than fourfold increase
- Inhibition of DNA gyrase (%) (E. coli DNA gyrase; 1× MIC): 81.45 ± 1.33%
- inhibitory effect on bacterial DNA gyrase in vitro (E. coli DNA gyrase; concentration not stated (Discussion)): ~ 90%
- increase in MIC values during passages (P. aeruginosa ATCC 9027 [4]): no more than fourfold increase
- % Displacement from LPS (LPS; 1× MIC): 39.22%
- % Displacement from LPS (LPS; 2× MIC): 52.67%
- % Displacement from LPS (LPS; 4× MIC): 69.53%
- % Displacement from LPS (LPS; 8× MIC): 75.50%
- % Displacement from LTA (LTA; 1× MIC): 2.86%
- % Displacement from LTA (LTA; 2× MIC): 14.81%
- % Displacement from LTA (LTA; 4× MIC): 17.88%
- % Displacement from LTA (LTA; 8× MIC): 32.95%

— article PMC11881906, “Development of xanthone derivatives as effective broad-spectrum antimicrobials: Disrupting cell wall and inhibiting DNA synthesis” (Science Advances, 2025)
